Measurements published in US9181234B2, “Antibacterial compounds” (priority 2010, dated 2015).
In brackets after ≈: the same amount, converted by molar mass.

Legend:
[1] = system: Streptococcus pyogenes (Isolate ID ATCC 51339); assay: Antibacterial activity, MIC, S. pyogenes; assay type: cell-based; settings: broth microdilution or agar dilution; for MIC: Streptococcus pyogenes, ATCC51339, Gram positive strain; for Antibacterial Activity (MIC) S. pyogenes (ATCC 51339): Gram positive strain
Description: (§1) Bacterial Assay: Determination of Antibacterial Activity
(§2) Compounds of the invention were tested for antimicrobial activity by susceptibility testing in liquid or on solid media. MICs for compounds against each strain were determined by the broth microdilution or agar dilution method according to the guidelines of the Clinical Laboratories and Standards Institute, formerly the National Committee for Clinical Laboratory Standards (Clinical Laboratories and Standards Institute. Methods for Dilution Antimicrobial Susceptibility Tests for Bacteria That Grow Aerobically; Approved Standard—Seventh Edition. Document M7-A7. CLSI, Wayne, Pa., 2006; Clinical Laboratories and Standards Institute. The gram positive bacterial strains tested include S. aureus (Staphylococcus aureus (Isolate ID ATCC 29213)), E. faecalis (Enterococcus faecalis (Isolate ID ATCC 29212)) and S. pyogenes (Streptococcus pyogenes (Isolate ID ATCC 51339)). The gram negative bacterial strains tested include H. influenzae (Haemophilus influenzae (Isolate ID ATCC 49247))

physchem = settings: kinetic from dmso stock
Description: Turbimetric Assay: Determination of Solubility
The solubility of the compounds was measured using a turbidimetric method. A series of doubling dilutions of compounds were prepared in neat dimethyl sulfoxide (DMSO). 5 μl samples were diluted twenty-fold into 95 μl volumes of 100 mM citrate buffer (pH 4), phosphate buffered saline (PBS, pH 7.4) or carbonate-bicarbonate buffer (pH 9) in microtitre assay plates and allowed to reach equilibrium at room temperature for 24 hours. The absorbance within each well of the plate was read spectrophotometrically at a wavelength of 620 nm. A precipitate forms when the maximum aqueous solubility level is reached. The value quoted is the highest concentration where the compound was in solution i.e. where no measurable precipitate was present. […] ND=not determined

[2] = system: Staphylococcus aureus (Isolate ID ATCC 29213); assay: Antibacterial activity, MIC, S. aureus; assay type: cell-based; settings: broth microdilution or agar dilution; for MIC: Staphylococcus aureus, ATCC29213, Gram positive strain; for Antibacterial Activity (MIC) S. aureus (ATCC 29213): Gram positive strain
Description: as §1, §2

[3] = system: Haemophilus influenzae (Isolate ID ATCC 49247); assay: Antibacterial activity, MIC, H. influenzae; assay type: cell-based; settings: Gram negative strain, broth microdilution or agar dilution; for MIC: Haemophilus influenzae, ATCC49247
Description: as §1, §2

[4] = pH 7.4, aqueous buffer, Max Solubility
[5] = pH 7.4, aqueous buffer, Solubility (pH 7.4)
[6] = pH 7.4, aqueous buffer, Solubility Range
[7] = pH 7.4, aqueous buffer, Solubility Range (maximum solubility)
[8] = pH 9, aqueous buffer, Max Solubility
[9] = pH 9, aqueous buffer, Solubility Range (maximum solubility)

SMILES	MIC [1]	solubility at 24 h (physchem; [4])	solubility at 24 h (physchem; [5])	solubility at 24 h (physchem; [6])	solubility at 24 h (physchem; [7])	MIC [2]	MIC [3]	solubility at 24 h (physchem; [8])	solubility at 24 h (physchem; [9])	Antibacterial Activity (MIC) S. pyogenes (ATCC 51339) [1]	Antibacterial Activity (MIC) S. aureus (ATCC 29213) [2]	Antibacterial Activity (MIC) H. influenzae (ATCC 49247) [3]
CCNC(=O)Nc1nc2cc(-c3cnc(N4CCC(C)(C(=O)O)CC4)nc3)cc(-c3ncc(C)cc3F)c2s1 [Compound 93]	≤ 0.25 mg/L	≥ 0.8 mg/mL	≥ 0.8 mg/mL	> 0.8 mg/mL	> 0.8 mg/mL	≤ 0.25 mg/L	1 to 16 mg/L (≈ 1.82 to 29.1 µM)	–	–	–	–	–
CCNC(=O)Nc1nc2cc(-c3cnc(N4CCC(C)(C(=O)O)CC4)nc3)cc(/C(C)=N/OCC(F)(F)F)c2s1 [Compound 94]	1 to 16 mg/L (≈ 1.73 to 27.6 µM)	≥ 0.8 mg/mL	≥ 0.8 mg/mL	> 0.8 mg/mL	> 0.8 mg/mL	1 to 16 mg/L (≈ 1.73 to 27.6 µM)	> 16 mg/L	–	–	–	–	–
CCNC(=O)Nc1nc2cc(-c3cnc(N4CCC(C)(C(=O)O)CC4)nc3)cc(/C(C)=N/O)c2s1 [Compound 95]	0.25 to 1 mg/L (≈ 0.502 to 2.01 µM)	≥ 0.8 mg/mL	≥ 0.8 mg/mL	> 0.8 mg/mL	> 0.8 mg/mL	1 to 16 mg/L (≈ 2.01 to 32.2 µM)	> 16 mg/L	–	–	–	–	–
CCNC(=O)Nc1nc2cc(-c3cnc(N4CCC(C)(C(=O)O)CC4)nc3)cc(/C(C)=N/OCC)c2s1 [Compound 96]	0.25 to 1 mg/L (≈ 0.476 to 1.9 µM)	≥ 0.8 mg/mL	≥ 0.8 mg/mL	> 0.8 mg/mL	> 0.8 mg/mL	≤ 0.25 mg/L	1 to 16 mg/L (≈ 1.9 to 30.4 µM)	–	–	–	–	–
CCNC(=O)Nc1nc2cc(-c3cnc(N4CCC(C)(C(=O)O)CC4)nc3)cc(C(=O)NCC)c2s1 [Compound 97, 1-[5-[7-(Ethylcarbamoyl)-2-(ethylcarbamoylamino)-1,3-benzothiazol-5-yl]pyrimidin-2-yl]-4-methyl-piperidine-4-carboxylic acid]	1 to 16 mg/L (≈ 1.95 to 31.3 µM)	≥ 0.8 mg/mL	≥ 0.8 mg/mL	> 0.8 mg/mL	> 0.8 mg/mL	> 16 mg/L	> 16 mg/L	–	–	–	–	–
CCNC(=O)Nc1nc2cc(-c3cnc(N4CCC(CC)(C(=O)O)CC4)nc3)cc(/C(C)=N/OC)c2s1 [Compound 116, 4-ethyl-1-[5-[2-(ethylcarbamoylamino)-7-[(E)-N-methoxy-C-methyl-carbonimidoyl]-1,3-benzothiazol-5-yl]pyrimidin-2-yl]piperidine-4-carboxylic acid]	≤ 0.25 mg/L	≥ 0.8 mg/mL	≥ 0.8 mg/mL	> 0.8 mg/mL	> 0.8 mg/mL	≤ 0.25 mg/L	1 to 16 mg/L (≈ 1.9 to 30.4 µM)	–	–	–	–	–
CCNC(=O)Nc1nc2cc(-c3cnc(N4CCC(C)(C(=O)O)CC4)nc3)cc(CN3CCOCC3)c2s1 [Compound 158, 1-[5-[2-(ethylcarbamoylamino)-7-(morpholinomethyl)-1,3-benzothiazol-5-yl]pyrimidin-2-yl]-4-methyl-piperidine-4-carboxylic acid]	1 to 16 mg/L (≈ 1.85 to 29.6 µM)	≥ 0.8 mg/mL	≥ 0.8 mg/mL	> 0.8 mg/mL	> 0.8 mg/mL	1 to 16 mg/L (≈ 1.85 to 29.6 µM)	> 16 mg/L	–	–	–	–	–
CCNC(=O)Nc1nc2cc(-c3cnc(N4CCC(C)(C(=O)O)CC4)nc3)cc(C(=O)N3CCOCC3)c2s1 [Compound 159, 1-[5-[2-(ethylcarbamoylamino)-7-(morpholine-4-carbonyl)-1,3-benzothiazol-5-yl]pyrimidin-2-yl]-4-methyl-piperidine-4-carboxylic acid]	> 16 mg/L	0.4 mg/mL (≈ 722 µM)	0.4 mg/mL (≈ 722 µM)	0.4 to 0.8 mg/mL (≈ 722 to 1440 µM)	0.4 to 0.8 mg/mL (≈ 722 to 1440 µM)	> 16 mg/L	> 16 mg/L	–	–	–	–	–
CCNC(=O)Nc1nc2cc(-c3cnc(N4CCC(C)(C(=O)O)CC4)nc3)nc(-c3ccccn3)c2s1 [Compound 162, 1-[5-[2-(ethylcarbamoylamino)-4-(2-pyridyl)thiazolo[5,4-c]pyridin-6-yl]pyrimidin-2-yl]-4-methyl-piperidine-4-carboxylic acid]	≤ 0.25 mg/L	–	0.2 mg/mL (≈ 386 µM)	0.0125 to 0.4 mg/mL (≈ 24.1 to 771 µM)	–	≤ 0.25 mg/L	1 to 16 mg/L (≈ 1.93 to 30.9 µM)	0.4 mg/mL (≈ 771 µM)	0.4 to 0.8 mg/mL (≈ 771 to 1540 µM)	–	–	–
CCNC(=O)Nc1nc2cc(-c3cnc(N4CCCC(C)(C(=O)O)CC4)nc3)cc(-c3ccccn3)c2s1 (stereo not drawn) [Compound 166]	≤ 0.25 mg/L	≥ 0.8 mg/mL	≥ 0.8 mg/mL	> 0.8 mg/mL	> 0.8 mg/mL	≤ 0.25 mg/L	1 to 16 mg/L (≈ 1.88 to 30.1 µM)	–	–	–	–	–
CCNC(=O)Nc1nc2cc(-c3ccnc(N4CCC(C)(C(=O)O)CC4)c3)cc(-c3ccccn3)c2s1 [Compound 182]	≤ 0.25 mg/L	–	0.2 mg/mL (≈ 387 µM)	0.0125 to 0.4 mg/mL (≈ 24.2 to 774 µM)	–	1 to 16 mg/L (≈ 1.94 to 31 µM)	> 16 mg/L	≥ 0.8 mg/mL	> 0.8 mg/mL	–	–	–
CCNC(=O)Nc1nc2cc(-c3cnc(N4CCC(C)(C(=O)NS(C)(=O)=O)CC4)nc3)cc(-c3ccccn3)c2s1 [Compound 186]	≤ 0.25 mg/L	≥ 0.8 mg/mL	≥ 0.8 mg/mL	> 0.8 mg/mL	> 0.8 mg/mL	1 to 16 mg/L (≈ 1.68 to 26.9 µM)	1 to 16 mg/L (≈ 1.68 to 26.9 µM)	–	–	–	–	–
CCNC(=O)Nc1nc2cc(-c3cnc(N4CCC(C)(C(=O)O)CC4)nc3)cc(/C(C)=N/OCCO)c2s1 [Compound 187]	0.25 to 1 mg/L (≈ 0.462 to 1.85 µM)	–	≥ 0.8 mg/mL	> 0.8 mg/mL	–	1 to 16 mg/L (≈ 1.85 to 29.5 µM)	1 to 16 mg/L (≈ 1.85 to 29.5 µM)	≥ 0.8 mg/mL	> 0.8 mg/mL	–	–	–
CCNC(=O)Nc1nc2cc(-c3cnc(N4CCC(C)(C(=O)O)CC4)nc3)cc(/C(C)=N/OCCOC)c2s1 [Compound 188]	1 to 16 mg/L (≈ 1.8 to 28.8 µM)	≥ 0.8 mg/mL	≥ 0.8 mg/mL	> 0.8 mg/mL	> 0.8 mg/mL	1 to 16 mg/L (≈ 1.8 to 28.8 µM)	> 16 mg/L	–	–	–	–	–
CCNC(=O)Nc1nc2cc(-c3cnc(N4CCC(CC)(C(=O)O)CC4)nc3)cc(/C=N/OC)c2s1 [Compound 189, 4-Ethyl-1-[5-[2-(ethylcarbamoylamino)-7-[(E)-methoximinomethl]-1,3-benzothiazol-5-yl]pyrimidin-2-yl]piperidine-4-carboxylic acid]	–	–	–	–	–	–	–	–	–	A (“A” activity ≦0.25 μg/mL)	A (“A” activity ≦0.25 μg/mL)	C (“C” activity >1.0 μg/mL-16 μg/mL)
CCNC(=O)Nc1nc2cc(-c3cnc4c(c3)OC(C)(C(=O)O)C(=O)N4)cc(-c3ccccn3)c2s1 (stereo not drawn) [Compound 190, 7-[2-(ethylcarbamoylamino)-7-(2-pyridyl)-1,3-benzothiazol-5-yl]-2-methyl-3-oxo-4H-pyrido[3,2-b][1,4]oxazine-2-carboxylic acid]	0.25 to 1 mg/L (≈ 0.496 to 1.98 µM)	0.4 mg/mL (≈ 793 µM)	0.4 mg/mL (≈ 793 µM)	0.4 to 0.8 mg/mL (≈ 793 to 1590 µM)	0.4 to 0.8 mg/mL (≈ 793 to 1590 µM)	0.25 to 1 mg/L (≈ 0.496 to 1.98 µM)	> 16 mg/L	–	–	–	–	–
CCNC(=O)Nc1nc2cc(-c3cnc(N4CCC(C)(C(=O)OCC)CC4)nc3)c(OC)cc2s1 [Compound 191, Ethyl 1-[5-[2-(ethylcarbamoylamino)-6-methoxy-1,3-benzothiazol-5-yl]pyrimidin-2-yl]-4-methyl-piperidine-4-carboxylate]	1 to 16 mg/L (≈ 2.01 to 32.1 µM)	0.00625 mg/mL (≈ 12.5 µM)	0.00625 mg/mL (≈ 12.5 µM)	< 0.0125 mg/mL	< 0.0125 mg/mL	1 to 16 mg/L (≈ 2.01 to 32.1 µM)	1 to 16 mg/L (≈ 2.01 to 32.1 µM)	–	–	–	–	–
CCNC(=O)Nc1cn2c(-n3cccn3)cc(-c3cnc(N4CCC(CC)(C(=O)O)CC4)nc3)cc2n1 [Compound 230, 4-ethyl-1-[5-[2-(ethylcarbamoylamino)-5-pyrazol-1-yl-imidazo[1,2-a]pyridin-7-yl]pyrimidin-2-yl]piperidine-4-carboxylic acid]	1 to 16 mg/L (≈ 1.99 to 31.8 µM)	–	–	–	–	1 to 16 mg/L (≈ 1.99 to 31.8 µM)	> 16 mg/L	–	–	–	–	–
CCNC(=O)Nc1cn2c(-n3cccn3)cc(-c3cnc(N4CCC(C)(C(=O)O)CC4)nc3)cc2n1 [Compound 231, 1-[5-[2-(ethylcarbamoylamino)-5-pyrazol-1-yl-imidazo[1,2-a]pyridin-7-yl]pyrimidin-2-yl]-4-methyl-piperidine-4-carboxylic acid]	1 to 16 mg/L (≈ 2.04 to 32.7 µM)	–	–	–	–	> 16 mg/L	–	–	–	–	–	–
CCNC(=O)Nc1nc2cc(-c3nc(N4CCC(C)(C(=O)O)CC4)ns3)cc(-c3ccccn3)c2s1 [Compound 233, 1-(5-{2-[(ethylcarbamoyl)amino]-7-(pyridin-2-yl)-1,3-benzothiazol-5-yl}-1,2,4-thiadiazol-3-yl)-4-methylpiperidine-4-carboxylic acid]	–	–	–	–	–	–	–	–	–	B (“B” activity >0.25 μg/mL-1.0 μg/mL)	B (“B” activity >0.25 μg/mL-1.0 μg/mL)	D (“D” activity >16 μg/mL)
